Results reported in paper PMC10141580, “Cyclic Dichalcogenides Extend the Reach of Bioreductive Prodrugs to Harness Thiol/Disulfide Oxidoreductases: Applications to seco-Duocarmycins Targeting the Thioredoxin System” (ACS Central Science, 2023).
Like-named read-outs stand apart in the source and are kept apart here.

Test system: NCI-60 standardized human tumor cell line panel
Assay: cells
Type: cell-based
Details: for NCI-60 screening: Log(GI50): log10 of GI50 in M; for NCI-60 screening: Log(RedIndex): log10 reductive index vs P-CC60

**Q.** Which “NCI-60 screening: Log(GI50)” value (786-0 (RE) cell line) does the source give for `COc1cc2cc(C(=O)N3CC(CCl)c4c3cc(OC(=O)N3CCN(C)C5CSSCC53)c3ccccc43)[nH]c2c(OC)c1OC` (mixture of isomers) [Me-SS66T-CBI-TMI] here?
**A.** -7.79

**Q.** What about the “NCI-60 screening: Log(RedIndex)” value (786-0 (RE) cell line) of the same compound?
**A.** 2.03

**Q.** What about the GI50 (786-0 (RE) cell line, read-out: NCI-60 screening: Raw GI50) of the same compound?
**A.** 16 nM

**Q.** What about the GI50 (786-0, read-out: GI50) of the same compound?
**A.** 16 nM

**Q.** What about the “NCI-60 screening: Log(GI50)” value (A498 (RE) cell line) of the same compound?
**A.** -6.9

**Q.** And the “NCI-60 screening: Log(RedIndex)” value (A498 (RE) cell line)?
**A.** 1.34

**Q.** What about the GI50 (A498 (RE) cell line, read-out: NCI-60 screening: Raw GI50) of the same compound?
**A.** 130 nM

**Q.** What about the GI50 (A498, read-out: GI50) of the same compound?
**A.** 130 nM

**Q.** And the GI50 (A549/ATCC, read-out: GI50)?
**A.** 12 nM

**Q.** What about the “NCI-60 screening: Log(GI50)” value (ACHN (RE) cell line) of the same compound?
**A.** -8.02

**Q.** What about the “NCI-60 screening: Log(RedIndex)” value (ACHN (RE) cell line) of the same compound?
**A.** 1.71

**Q.** What about the GI50 (ACHN (RE) cell line, read-out: NCI-60 screening: Raw GI50) of the same compound?
**A.** 9.5 nM

**Q.** What about the GI50 (ACHN, read-out: GI50) of the same compound?
**A.** 9.5 nM

**Q.** What about the GI50 (BT-549, read-out: GI50) of the same compound?
**A.** 15 nM

**Q.** What about the “NCI-60 screening: Log(GI50)” value (CAKI-1 (RE) cell line) of the same compound?
**A.** -7.56

**Q.** What about the “NCI-60 screening: Log(RedIndex)” value (CAKI-1 (RE) cell line) of the same compound?
**A.** 1.74

**Q.** And the GI50 (CAKI-1 (RE) cell line, read-out: NCI-60 screening: Raw GI50)?
**A.** 27 nM

**Q.** What about the GI50 (CAKI-1, read-out: GI50) of the same compound?
**A.** 27 nM

**Q.** What about the GI50 (CCRF-CEM, read-out: GI50) of the same compound?
**A.** 26 nM

**Q.** And the GI50 (COLO 205, read-out: GI50)?
**A.** 49 nM

**Q.** What about the “NCI-60 screening: Log(GI50)” value (DU-145 (PR) cell line) of the same compound?
**A.** -8.46

**Q.** And the “NCI-60 screening: Log(RedIndex)” value (DU-145 (PR) cell line)?
**A.** 2.12

**Q.** And the GI50 (DU-145, read-out: GI50)?
**A.** 3.5 nM

**Q.** And the GI50 (EKVX, read-out: GI50)?
**A.** 18 nM

**Q.** And the GI50 (HCC-2998, read-out: GI50)?
**A.** 15 nM

**Q.** What about the GI50 (HCT-15, read-out: GI50) of the same compound?
**A.** 22 nM

**Q.** And the GI50 (HCT-116, read-out: GI50)?
**A.** 18 nM

**Q.** And the GI50 (HL-60(TB), read-out: GI50)?
**A.** 12 nM

**Q.** What about the GI50 (HOP-62, read-out: GI50) of the same compound?
**A.** 12 nM

**Q.** And the GI50 (HOP-92, read-out: GI50)?
**A.** 27 nM

**Q.** And the GI50 (HT29, read-out: GI50)?
**A.** 34 nM

**Q.** And the “NCI-60 screening: Log(GI50)” value (IGROV1 (OV) cell line)?
**A.** -7.23

**Q.** What about the “NCI-60 screening: Log(RedIndex)” value (IGROV1 (OV) cell line) of the same compound?
**A.** 1.6

**Q.** And the GI50 (IGROV1 (OV) cell line, read-out: NCI-60 screening: Raw GI50)?
**A.** 58 nM

**Q.** And the GI50 (IGROV1, read-out: GI50)?
**A.** 58 nM

**Q.** And the GI50 (K-562, read-out: GI50)?
**A.** 25 nM

**Q.** What about the GI50 (KM12, read-out: GI50) of the same compound?
**A.** 44 nM

**Q.** What about the GI50 (LOX IMVI, read-out: GI50) of the same compound?
**A.** 12 nM

**Q.** What about the GI50 (M14, read-out: GI50) of the same compound?
**A.** 10 nM

**Q.** And the GI50 (MALME-3M, read-out: GI50)?
**A.** 14 nM

**Q.** What about the GI50 (MCF7, read-out: GI50) of the same compound?
**A.** 5.2 nM

**Q.** What about the GI50 (MDA-MB-435, read-out: GI50) of the same compound?
**A.** 27 nM

**Q.** What about the GI50 (MDA-MB-468, read-out: GI50) of the same compound?
**A.** 12 nM

**Q.** And the GI50 (MOLT-4, read-out: GI50)?
**A.** 9.9 nM

**Q.** What about the GI50 (NCI-H23, read-out: GI50) of the same compound?
**A.** 9.5 nM

**Q.** And the GI50 (NCI-H226, read-out: GI50)?
**A.** 95 nM

**Q.** What about the “NCI-60 screening: Log(GI50)” value (NCI-H460 (LC) cell line) of the same compound?
**A.** -8.32

**Q.** And the “NCI-60 screening: Log(RedIndex)” value (NCI-H460 (LC) cell line)?
**A.** 2.03

**Q.** And the GI50 (NCI-H460, read-out: GI50)?
**A.** 4.8 nM

**Q.** And the “NCI-60 screening: Log(GI50)” value (NCI-H522 (LC) cell line)?
**A.** -7.91

**Q.** What about the “NCI-60 screening: Log(RedIndex)” value (NCI-H522 (LC) cell line) of the same compound?
**A.** 2.14

**Q.** What about the GI50 (NCI-H522 (LC) cell line, read-out: NCI-60 screening: Raw GI50) of the same compound?
**A.** 12 nM

**Q.** What about the GI50 (NCI-H522, read-out: GI50) of the same compound?
**A.** 12 nM

**Q.** What about the “NCI-60 screening: Log(GI50)” value (OVCAR-3 (OV) cell line) of the same compound?
**A.** -7.28

**Q.** And the “NCI-60 screening: Log(RedIndex)” value (OVCAR-3 (OV) cell line)?
**A.** 1.6

**Q.** What about the GI50 (OVCAR-3, read-out: GI50) of the same compound?
**A.** 53 nM

**Q.** And the “NCI-60 screening: Log(GI50)” value (OVCAR-4 (OV) cell line)?
**A.** -6.8

**Q.** What about the “NCI-60 screening: Log(RedIndex)” value (OVCAR-4 (OV) cell line) of the same compound?
**A.** 1.17

**Q.** What about the GI50 (OVCAR-4 (OV) cell line, read-out: NCI-60 screening: Raw GI50) of the same compound?
**A.** 160 nM

**Q.** And the GI50 (OVCAR-4, read-out: GI50)?
**A.** 160 nM

**Q.** And the “NCI-60 screening: Log(GI50)” value (OVCAR-5 (OV) cell line)?
**A.** -7.44

**Q.** What about the “NCI-60 screening: Log(RedIndex)” value (OVCAR-5 (OV) cell line) of the same compound?
**A.** 2.15

**Q.** What about the GI50 (OVCAR-5, read-out: GI50) of the same compound?
**A.** 36 nM

**Q.** And the “NCI-60 screening: Log(GI50)” value (OVCAR-8 (OV) cell line)?
**A.** -8.06

**Q.** And the “NCI-60 screening: Log(RedIndex)” value (OVCAR-8 (OV) cell line)?
**A.** 2.28

**Q.** And the GI50 (OVCAR-8, read-out: GI50)?
**A.** 8.6 nM

**Q.** What about the “NCI-60 screening: Log(GI50)” value (PC-3 (PR) cell line) of the same compound?
**A.** -7.61

**Q.** And the “NCI-60 screening: Log(RedIndex)” value (PC-3 (PR) cell line)?
**A.** 2.11

**Q.** And the GI50 (PC-3 (PR) cell line, read-out: NCI-60 screening: Raw GI50)?
**A.** 25 nM

**Q.** And the GI50 (PC-3, read-out: GI50)?
**A.** 25 nM

**Q.** And the GI50 (RPMI-8226, read-out: GI50)?
**A.** 34 nM

**Q.** And the “NCI-60 screening: Log(GI50)” value (RXF 393 (RE) cell line)?
**A.** -8.02

**Q.** What about the “NCI-60 screening: Log(RedIndex)” value (RXF 393 (RE) cell line) of the same compound?
**A.** 2.05

**Q.** And the GI50 (RXF 393 (RE) cell line, read-out: NCI-60 screening: Raw GI50)?
**A.** 9.5 nM

**Q.** What about the GI50 (RXF 393, read-out: GI50) of the same compound?
**A.** 9.5 nM

**Q.** And the GI50 (SF-268, read-out: GI50)?
**A.** 15 nM

**Q.** And the GI50 (SF-295, read-out: GI50)?
**A.** 9.7 nM

**Q.** And the GI50 (SF-539, read-out: GI50)?
**A.** 10 nM

**Q.** And the GI50 (SK-MEL-5, read-out: GI50)?
**A.** 13 nM

**Q.** And the GI50 (SK-MEL-28, read-out: GI50)?
**A.** 15 nM

**Q.** And the “NCI-60 screening: Log(GI50)” value (SK-OV-3 (OV) cell line)?
**A.** -7.91

**Q.** What about the “NCI-60 screening: Log(RedIndex)” value (SK-OV-3 (OV) cell line) of the same compound?
**A.** 2.24

**Q.** What about the GI50 (SK-OV-3 (OV) cell line, read-out: NCI-60 screening: Raw GI50) of the same compound?
**A.** 12 nM

**Q.** What about the GI50 (SK-OV-3, read-out: GI50) of the same compound?
**A.** 12 nM

**Q.** And the “NCI-60 screening: Log(GI50)” value (SN12C (RE) cell line)?
**A.** -7.77

**Q.** And the “NCI-60 screening: Log(RedIndex)” value (SN12C (RE) cell line)?
**A.** 1.85

**Q.** And the GI50 (SN12C, read-out: GI50)?
**A.** 17 nM

**Q.** And the GI50 (SNB-19, read-out: GI50)?
**A.** 16 nM

**Q.** And the GI50 (SR, read-out: GI50)?
**A.** 4 nM

**Q.** What about the GI50 (SW-620, read-out: GI50) of the same compound?
**A.** 58 nM

**Q.** And the GI50 (T-47D, read-out: GI50)?
**A.** 50 nM

**Q.** And the “NCI-60 screening: Log(GI50)” value (TK-10 (RE) cell line)?
**A.** -6.9

**Q.** And the “NCI-60 screening: Log(RedIndex)” value (TK-10 (RE) cell line)?
**A.** 1.35

**Q.** What about the GI50 (TK-10 (RE) cell line, read-out: NCI-60 screening: Raw GI50) of the same compound?
**A.** 130 nM
